From ChEMBL document CHEMBL3046079, “Synthesis, herbicidal activity, and mode of action of IR 5790” (J Agric Food Chem, 2001)

Assays:
Phalaris arundinacea [1] = assay: Post-emergence herbicidal activity against Phalaris arundinacea assessed as injury at 150 g/ha applied at 15 days post-sowing measured after 15 days relative to control; type: functional
Portulaca oleracea [2] = assay: Pre-emergence herbicidal activity against Portulaca oleracea assessed as injury at 50 g/ha applied at 24 hr post-sowing measured after 28 days relative to control; type: functional
Capsella bursa-pastoris = assay: Pre-emergence herbicidal activity against Capsella bursa-pastoris assessed as injury at 50 g/ha applied at 24 hr post-sowing measured after 28 days relative to control; type: functional
Amaranthus retroflexus = assay: Pre-emergence herbicidal activity against Amaranthus retroflexus assessed as injury at 50 g/ha applied at 24 hr post-sowing measured after 28 days relative to control; type: functional
Beta vulgaris [3] = assay: Phytotoxicity against Beta vulgaris assessed as injury at 150 g/ha applied as pre-emergent treatment at 24 hr post-sowing measured after 28 days relative to control; type: organism-based; details: in vivo, other, 672 h
Setaria viridis [4] = assay: Pre-emergence herbicidal activity against Setaria viridis (green foxtail) assessed as injury at 150 g/ha applied at 24 hr post-sowing measured after 28 days relative to control; type: functional
Beta vulgaris [5] = assay: Phytotoxicity against Beta vulgaris assessed as injury at 50 g/ha applied as pre-emergent treatment at 24 hr post-sowing measured after 28 days relative to control; type: organism-based; details: in vivo, other, 672 h
Setaria viridis [6] = assay: Pre-emergence herbicidal activity against Setaria viridis (green foxtail) assessed as injury at 50 g/ha applied at 24 hr post-sowing measured after 28 days relative to control; type: functional
Phalaris arundinacea [7] = assay: Pre-emergence herbicidal activity against Phalaris arundinacea assessed as injury at 50 g/ha applied at 24 hr post-sowing measured after 28 days relative to control; type: functional
Panicum dichotomiflorum = assay: Pre-emergence herbicidal activity against Panicum dichotomiflorum assessed as injury at 50 g/ha applied at 24 hr post-sowing measured after 28 days relative to control; type: functional
Echinochloa crus-galli = assay: Pre-emergence herbicidal activity against Echinochloa crus-galli (barnyard grass) assessed as injury at 50 g/ha applied at 24 hr post-sowing measured after 28 days relative to control; type: functional
Avena fatua [8] = assay: Pre-emergence herbicidal activity against Avena fatua assessed as injury at 50 g/ha applied at 24 hr post-sowing measured after 28 days relative to control; type: functional
Digitaria sanguinalis = assay: Post-emergence herbicidal activity against Digitaria sanguinalis (hairy crabgrass) assessed as injury at 150 g/ha applied at 15 days post-sowing measured after 15 days relative to control; type: functional
Avena fatua [9] = assay: Post-emergence herbicidal activity against Avena fatua assessed as injury at 150 g/ha applied at 15 days post-sowing measured after 15 days relative to control; type: functional
Solanum nigrum [10] = assay: Post-emergence herbicidal activity against Solanum nigrum (black nightshade) assessed as injury at 150 g/ha applied at 15 days post-sowing measured after 15 days relative to control; type: functional
Persicaria maculosa [11] = assay: Post-emergence herbicidal activity against Persicaria maculosa assessed as injury at 150 g/ha applied at 15 days post-sowing measured after 15 days relative to control; type: functional
Portulaca oleracea [12] = assay: Post-emergence herbicidal activity against Portulaca oleracea assessed as injury at 150 g/ha applied at 15 days post-sowing measured after 15 days relative to control; type: functional
Papaver rhoeas = assay: Post-emergence herbicidal activity against Papaver rhoeas assessed as injury at 150 g/ha applied at 15 days post-sowing measured after 15 days relative to control; type: functional
Galium aparine [13] = assay: Post-emergence herbicidal activity against Galium aparine assessed as injury at 150 g/ha applied at 15 days post-sowing measured after 15 days relative to control; type: functional
Beta vulgaris [14] = assay: Phytotoxicity against Beta vulgaris assessed as injury at 150 g/ha applied as post-emergent treatment at 15 days post-sowing measured after 15 days relative to control; type: organism-based; details: in vivo, other, 360 h
Solanum nigrum [15] = assay: Post-emergence herbicidal activity against Solanum nigrum (black nightshade) assessed as injury at 5 g/ha applied at 15 days post-sowing measured after 15 days relative to control; type: functional
Calystegia sepium = assay: Post-emergence herbicidal activity against Calystegia sepium assessed as injury at 5 g/ha applied at 15 days post-sowing measured after 15 days relative to control; type: functional
Chenopodium album [16] = assay: Post-emergence herbicidal activity against Chenopodium album assessed as injury at 5 g/ha applied at 15 days post-sowing measured after 15 days relative to control; type: functional
Glycine max = assay: Phytotoxicity against Glycine max (soybean) assessed as injury at 15 g/ha applied as post-emergent treatment at 15 days post-sowing measured after 15 days relative to control; type: organism-based; details: in vivo, other, 360 h
Sorghum bicolor = assay: Post-emergence herbicidal activity against Sorghum bicolor assessed as injury at 15 g/ha applied at 15 days post-sowing measured after 15 days relative to control; type: functional
Solanum nigrum [17] = assay: Post-emergence herbicidal activity against Solanum nigrum (black nightshade) assessed as injury at 15 g/ha applied at 15 days post-sowing measured after 15 days relative to control; type: functional
Persicaria maculosa [18] = assay: Post-emergence herbicidal activity against Persicaria maculosa assessed as injury at 15 g/ha applied at 15 days post-sowing measured after 15 days relative to control; type: functional
Chenopodium album [19] = assay: Post-emergence herbicidal activity against Chenopodium album assessed as injury at 15 g/ha applied at 15 days post-sowing measured after 15 days relative to control; type: functional
Alopecurus myosuroides [20] = assay: Pre-emergence herbicidal activity against Alopecurus myosuroides assessed as injury at 150 g/ha applied at 24 hr post-sowing measured after 28 days relative to control; type: functional
Persicaria maculosa [21] = assay: Pre-emergence herbicidal activity against Persicaria maculosa assessed as injury at 150 g/ha applied at 24 hr post-sowing measured after 28 days relative to control; type: functional
Galium aparine [22] = assay: Pre-emergence herbicidal activity against Galium aparine assessed as injury at 150 g/ha applied at 24 hr post-sowing measured after 28 days relative to control; type: functional
Oryza sativa = assay: Phytotoxicity against Oryza sativa (rice) assessed as injury at 50 g/ha applied as post-emergent treatment at 15 days post-sowing measured after 15 days relative to control; type: organism-based; details: in vivo, other, 360 h
Ammi majus = assay: Pre-emergence herbicidal activity against Amni maius assessed as injury at 150 g/ha applied at 24 hr post-sowing measured after 28 days relative to control; type: functional
Gossypium hirsutum = assay: Phytotoxicity against Gossypium hirsutum (cotton) assessed as injury at 50 g/ha applied as post-emergent treatment at 15 days post-sowing measured after 15 days relative to control; type: organism-based; details: in vivo, other, 360 h
Setaria viridis [23] = assay: Post-emergence herbicidal activity against Setaria viridis (green foxtail) assessed as injury at 50 g/ha applied at 15 days post-sowing measured after 15 days relative to control; type: functional
Alopecurus myosuroides [24] = assay: Post-emergence herbicidal activity against Alopecurus myosuroides assessed as injury at 50 g/ha applied at 15 days post-sowing measured after 15 days relative to control; type: functional
Sida spinosa = assay: Post-emergence herbicidal activity against Sida spinosa assessed as injury at 50 g/ha applied at 15 days post-sowing measured after 15 days relative to control; type: functional
Persicaria maculosa [25] = assay: Post-emergence herbicidal activity against Persicaria maculosa assessed as injury at 50 g/ha applied at 15 days post-sowing measured after 15 days relative to control; type: functional

SMILES: C#CCOc1cc(-n2nc(C(C)(C)C)sc2=O)c(Cl)cc1Cl
- Activity (Phalaris arundinacea [1]): 30%
- Activity (Portulaca oleracea [2]): 70%
- Activity (Capsella bursa-pastoris): 70%
- Activity (Amaranthus retroflexus): 50%
- Activity (Beta vulgaris [3]): 10%
- Activity (Setaria viridis [4]): 70%
- Activity (Beta vulgaris [5]): 10%
- Activity (Setaria viridis [6]): 30%
- Activity (Phalaris arundinacea [7]): 0%
- Activity (Panicum dichotomiflorum): 90%
- Activity (Echinochloa crus-galli): 30%
- Activity (Avena fatua [8]): 0%
- Activity (Digitaria sanguinalis): 70%
- Activity (Avena fatua [9]): 30%
- Activity (Solanum nigrum [10]): 90%
- Activity (Persicaria maculosa [11]): 90%
- Activity (Portulaca oleracea [12]): 90%
- Activity (Papaver rhoeas): 30%
- Activity (Galium aparine [13]): 50%
- Activity (Beta vulgaris [14]): 90%
- Activity (Solanum nigrum [15]): 0%
- Activity (Calystegia sepium): 10%
- Activity (Chenopodium album [16]): 10%
- Activity (Glycine max): 0%
- Activity (Sorghum bicolor): 10%
- Activity (Solanum nigrum [17]): 10%
- Activity (Persicaria maculosa [18]): 70%
- Activity (Chenopodium album [19]): 70%
- Activity (Alopecurus myosuroides [20]): 70%
- Activity (Persicaria maculosa [21]): 50%
- Activity (Galium aparine [22]): 0%
- Activity (Oryza sativa): 0%
- Activity (Ammi majus): 0%
- Activity (Gossypium hirsutum): 30%
- Activity (Setaria viridis [23]): 10%
- Activity (Alopecurus myosuroides [24]): 30%
- Activity (Sida spinosa): 50%
- Activity (Persicaria maculosa [25]): 90%
